Reference: patent publication US20070093539A1, “N-hydroxy-4-(3-pheyl-5-methyl-isoxazole-4-yl)-benzenesulfonate solvates” (priority 2003, published 2007)

Legend:
[1] = target: T1, sheep COX-1 (Ovis aries, UniProt P05979); assay: spectrophotometric TMPD assay, COX-1; type: biochemical; conditions: 15 min preincubation at 25° C., read-out: Sheep COX-1 IC50 (μM) ± S.E.M.
T1 construct: purchased Cayman Chemical, Ann Arbor, USA 60100
T1 sequence (P05979 25-600): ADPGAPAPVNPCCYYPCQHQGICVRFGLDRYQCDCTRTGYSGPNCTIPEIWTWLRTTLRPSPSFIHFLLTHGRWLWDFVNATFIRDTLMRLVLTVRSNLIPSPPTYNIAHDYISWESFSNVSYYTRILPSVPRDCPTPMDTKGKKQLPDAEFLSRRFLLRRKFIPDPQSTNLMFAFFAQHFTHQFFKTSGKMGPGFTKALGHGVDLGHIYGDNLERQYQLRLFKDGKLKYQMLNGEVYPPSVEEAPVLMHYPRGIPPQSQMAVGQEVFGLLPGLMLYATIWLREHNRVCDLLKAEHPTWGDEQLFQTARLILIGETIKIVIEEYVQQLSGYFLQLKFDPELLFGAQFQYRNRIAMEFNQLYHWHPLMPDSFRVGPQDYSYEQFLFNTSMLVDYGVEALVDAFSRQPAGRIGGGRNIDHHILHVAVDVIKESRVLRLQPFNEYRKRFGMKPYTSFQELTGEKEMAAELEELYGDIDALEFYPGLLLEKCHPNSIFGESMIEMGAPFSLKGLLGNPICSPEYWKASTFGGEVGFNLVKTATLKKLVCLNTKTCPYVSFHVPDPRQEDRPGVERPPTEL
Experimental: The Human recombinant COX-2 and sheep COX-1 activity were determined by spectrophotometric TMPD assay (K. Gierse, S. D. Hauser, D. P. Creely, C. M. Koboldt, S. H. Rangwala, P. C. Isakson and K. Seibert: Expression and selective inhibition of the constitutive and inducible forms of human cyclo-oxygenase Biochem. J. 305: 479-484 (1995)).
The Human recombinant COX-2 and sheep COX-1 activity were measured by spectrophotometric assay based on oxidation of N,N,N′,N′,-tetramethyl-p-phenylenediamine (TMPD). During the reduction of the prostaglandine G2 (PGG2) to prostaglandine endoperoxid H2 (PGH2), the TMPD is being oxidated to a colour product, which can be measured by spectrophotometer at 610 nm.
4 μl of solution of inhibitors in different concentrations was added to the 156 μl of reaction mixture (100 mM sodium phosphate buffer, pH:6.5, 1 μM hematin, 1 mg/ml gelatine). Afterwards 20 μl solution of 50 unit human recombinant COX-2 enzym or 20 μl of 50 unit sheep COX-1 enzym (Cayman Chemical, Ann Arbor, USA, cat no.: 60122/COX-2/, cat. no.: 60100/COX-1/) was added. The incubation mixture: was preincubated for 15 minutes at 25° C. in a spectrophotometric 96-well plate reader (Labsystem iEMS Reader MF). Following this, the mixture of 20 μl 1 mM arachidonic acid and 1 mM TMPD solution were added. It was shaken for 10 second and the absorbance was measured at 610 nm.

[2] = test system: carrageenan induced inflammatory hyperalgesia; assay: Carrageenan induced inflammatory hyperalgesia (Randall-Selitto), chronic model; type: in vivo, male SPRD rats; conditions: 30 mg/kg p.o.
Experimental: Edema was induced by injection of Carrageenan (CA) into plantar surface of right hind paw. Male SPRD rats (weighing 140-190 g) were used n=6-8/group). Then the mechanical pain threshold of the inflamed hind paw was determined with an analgesimeter ((Ugo Basile, type: 37215).
This assay monitors the decrease of the pain threshold, and the time depending changing of the pain by mechanical pain stimulus. Analgesics can increase the pain threshold of the inflamed hinds and this effect is in terms of percentage of reversal.
Untreated right hind paw was compressed with a progressively increasing pressure. The pressure was recorded (in grams) when the animal first vocalized or made a vigorous attempt to remove the paw. It was determined to baseline threshold of the untreated paw. (average: 80-110 g). After it the animals were treated with carrageenan. After the treatment the edema and the threshold were checked in a given times. […] (Average of inflammation induced pain threshold was 20-25 g, this means 65-80% decrease related to the baseline.)
The chronic phase of the inflammantion and the decreasing of the threshold were induced by higher dose of CA. Inflammation induced threshold decreasing was measured 24 hours after the CA injection (150 μl of 2% solution). ) After it the animals were treated with test compounds and valdecoxib (30-30 mg/kg p.o.). Change in the threshold was checked at 1 h, 2 h, and 3 h following drug administration. In both model used control groups were treated orally only with solvents at the time of treatments. In both protocol the effects of the test compounds were calculated in percentage reversal of mechanical hiperalgesia: [formula] • T3h: In acute model, the threshold in the control group at 3 h after the CA injection (in gram) • T24h: In chronic model, the threshold in the control group at 24 h after the CA injection (in gram) • T0h: The threshold before the CA injection (in gram) • TXh In acute model, at 3h after the CA injection • TXh=In chronic model, at 25 h, 26 h, 27 h after the CA injection

Substance: N-hydroxi-4-(3-phenyl-5-methyl-isoxazole-4-yl)-benzenesulfonamide monohydrate [example 1]
- IC50 [1]: 101 ± 12.5 µM
- Analgesic effect in % after p.o. treatment ([2]; 1 hour): 57.8%
- Analgesic effect in % after p.o. treatment ([2]; 2 hours): 63.9%
- Analgesic effect in % after p.o. treatment ([2]; 3 hours): 42.0%
